Key:
SOD1 G93A mice [1] = assay: Survival analysis (Kaplan-Meier) in SOD1 G93A (high copy) mouse model of ALS
Excerpt: (i) Model Description: The SOD1 G93A (high copy) mouse model was used as the model for ALS. This mouse model carries 25 copies of the human G93A SOD mutation and is driven by the endogenous promoter.
(ii) Murine FALS model: Heterozygous transgenic mice carrying the human SOD-1 (G93A) gene were obtained from Jackson Laboratory (Bar Harbor, Me., USA).
(iv) Methods: Forty (n=40) SOD1 G93A high copy mice obtained from Jackson Laboratory (Bar Harbor, Me.) were separated into two groups of twenty (n=20) with an equal number of males (n=10) and females (n=10) in each group. The groups were also litter matched to reduce group variation. Male animals were singly housed and females were group housed to conserve space. […] When animals had difficulty in moving and taking care of themselves chow and water were replaced with food pellets in bedding and Jell-O for water. (v) Pharmacological Agent Delivery: All pharmacological agents were administered to SOD1 G93A mice.
Controls animals were given water as vehicle. All treatments are performed 7 days per week and treatment was initiated at day 60 of life. […] When a neurological score of 2 is attained, the animals are no longer capable of drinking themselves due to paralysis. […] Controls were given water as vehicle until a neurological score of 2 at which point they were injected with saline as vehicle.
• 0=Normal reflex on the hind limbs (animal will splay its hind limbs when lifted by its tail). • 1=Abnormal reflex of hind limbs (lack of splaying of hind limbs when animal is lifted by the tail). • 2=Abnormal reflex of limbs and evidence of paralysis. • 3=Lack of reflex and complete paralysis. • 4=Inability to right themselves when placed on the sides in 30 seconds or found dead. The animals are sacrificed at this stage if alive.

SOD1 G93A mice [2] = assay: Neurological score analysis in SOD1 G93A (high copy) mouse model of ALS; format: in vivo
Excerpt: Survival in the mouse is copy dependent.
Controls animals were given water as vehicle.

[3] = system: patients with advanced non-small cell lung cancer; conditions: Phase I, advanced non-small cell lung cancer (Hahm et al. 2002); cited from earlier work
SOD1 G93A mice [4] = conditions: mouse, in vivo, ip, 250 mg/kg/day
[5] = discontinuous dosing 3200 mg/Kg/day in drinking water, 21 days on / 7 days off
[6] = female mice, IP 24 mg/kg/day twice daily till death, FIG. 12

NCCCC(N)(C(=O)O)C(F)F (racemic) [DFMO, 2-(Difuoromethyl)-DL-ornithine]
onset of disease (SOD1 G93A mice [1]; continuous dosing 3200 mg/Kg/day in drinking water, no drug holiday): delays the onset of disease
life span (SOD1 G93A mice [1]; continuous dosing 3200 mg/Kg/day in drinking water, no drug holiday, combined, male and female, FIGS. 4, 6 and 8): extended the life span
onset of disease (SOD1 G93A mice [1]; [5]): delays the onset of disease
survival (SOD1 G93A mice [1]; [5]): extends the survival
deaths of animals in the treatment group during the drug holiday or a few days immediately succeeding it (SOD1 G93A mice [1]; females, discontinuous dosing 3200 mg/Kg/day in drinking water, 21 days then 7 day drug holiday, FIG. 2): 70%
trend in male mice (SOD1 G93A mice [1]; ongoing IP injection study, 3200 mg/kg, male mice): positive male trend
effect on neurological score (SOD1 G93A mice [2]; combined male and female, continuous dosing 3200 mg/Kg/day, FIGS. 5): protective
effect on neurological score (SOD1 G93A mice [2]; female mice, discontinuous dosing 3200 mg/Kg/day, during the drug delivery period): protective
effect on neurological score (SOD1 G93A mice [2]; female, continuous dosing 3200 mg/Kg/day, FIG. 9): protective
effect on neurological score (SOD1 G93A mice [2]; male, continuous dosing 3200 mg/Kg/day, FIG. 7): protective

CCNCCCNCCCNCCCNCC [DENSPM, N(1),N(11)-diethylnorspermine]
onset of disease (SOD1 G93A mice [1]; [6]): delays the onset of disease
survival (SOD1 G93A mice [1]; [6]): extends the survival
toxicity in patients [3]: minimal toxicity
effect on neurological score (SOD1 G93A mice [2]; female mice, IP 24 mg/kg/day twice daily till death, FIG. 13): protective

NC(=O)NO [hydroxyurea]
onset of ALS disease (SOD1 G93A mice [1]; IP 250 mg/Kg/day once daily, day 50 until day 110): delays the onset of ALS disease
life span (SOD1 G93A mice [1]; female mice, IP 250 mg/Kg/day once daily, day 50 until day 110, FIG. 10): extended the life span
toxicity leading to stop of treatment (SOD1 G93A mice [4]): discontinued after day 110 due to toxicity
effect on neurological score (SOD1 G93A mice [2]; female mice, IP 250 mg/Kg/day once daily, day 50 until day 110, FIG. 11): protective

From patent US7273888B2, “Use of difluoromethylornithine (DFMO) for the treatment of amyotrophic lateral sclerosis” (ALS Therapy Development Foundation, Inc., priority 2001, dated 2007)
